“Also recorded” adds a separate entry of the source.
Target: T1, human serum albumin (Homo sapiens, UniProt P02768)
T1 construct: purchased Sigma, St. Louis, MO
Assay: Equilibrium dialysis of 14C-L-TRP binding to human serum albumin in presence of ligands (Scatchard plots)
Conditions: for reduction of the affinity (Ka) of L-TRP for albumin: two moles of ligand per mole albumin, equilibrium dialysis, 37° C., pH 7.4; for effect on L-TRP binding to albumin: one molar equivalent of ligand; for effect on L-TRP binding capacity of albumin: second and third molar equivalents of ligand
Procedure: Human serum albumin (Fraction V) was purchased from Sigma, St. Louis, MO. The protein was defatted with activated charcoal according to Chen, R. F. (1967), J. Biol. Chem 242: 173-181 and monomeric albumin purified as previously described in Soltys, B. J. and Hsia, J. C. (1977), J. Biol. Chem. 252: 4043-4048. Protein concentration was determined by absorption of ultraviolet light, assuming E279 nm^1% =5.30 according to Clark, P., Rachinsky, M. R. and Foster, J. F. (1962), J. Biol. Chem. 237: 2509-2513. The sodium salt of cis-parinaric acid was dissolved in 1×10^-4 Malbumin in Ringer's buffer. The Ringer's buffer contained 110 mM NaCl, 5 mM KCl, 1.2 mM MgSO4, 1.2 mM KH2 PO4 and 10 mM Na2 HPO4 at a pH of 7.4 at 37° C. L-tryptophan, stearate and bilirubin were also purchased from Sigma, St. Louis, MO. cis-parinaric acid was purchased from Molecular Probes Inc., Plano, TX. L-[side chain-3 -^14 C]-tryptophan (^14 C-L-TRP) was purchased from New England Nuclear, Boston, Mass. Fatty acids and bilirubin were dissolved in albumin solution essentially as previously described in Soltys, B. J. and Hsia, J. C. (1977), J. Viol. Chem. 252: 4043-4048. Briefly, fatty acid or bilirubin (sodium salt) in methanol was dried under vacuum in dim light to form a thin film in a small glass vial. The albumin solution was added to the vial and gently blended on a Vortex mixer until optically clear.
Equilibrium dialysis cells (approximately 200 μl total capacity) with injection/sampling ports were used. Dialysis membranes (Canlab, Toronto, Ont), previously boiled in distilled water, were placed on one half-cell and then the two half-cells were bolted together. 100 ul of albumin (1×10^-4 M), or its ligand complex was added to one side of the dialysis cells, while 100 μl of a solution of ^14 C-L-TRP was added to the other side.
The cells were sealed with tape and incubated with slight oscillation at 37±0.5° C. in a jacketed incubator (Model 3314, Forma Scientific, Marietta, OH). The cells contained total amount of L-TRP varying from 0.5 to 20 times the number of moles of albumin. After six hours incubation, 25 μl samples were drawn from the albumin side and the buffer side of each cell. These were counted in 6 ml plastic scintillation vials (Canlab) containing 5 ml Aquasol (New England Nuclear) in a liquid scintillation counter (LS 9000, Beckman, Irvine, CA). A quench curve was constructed to correct for quenching of counts by bilirubin.
The equation for the Scatchard plot is
where n is the number of binding sites and Ka is the apparent association constant. Thus the r-intercept is n and the r/c-intercept is nK (a measure of binding capacity), while the negative slope yields the Ka.

T1 sequence (P02768 25-609): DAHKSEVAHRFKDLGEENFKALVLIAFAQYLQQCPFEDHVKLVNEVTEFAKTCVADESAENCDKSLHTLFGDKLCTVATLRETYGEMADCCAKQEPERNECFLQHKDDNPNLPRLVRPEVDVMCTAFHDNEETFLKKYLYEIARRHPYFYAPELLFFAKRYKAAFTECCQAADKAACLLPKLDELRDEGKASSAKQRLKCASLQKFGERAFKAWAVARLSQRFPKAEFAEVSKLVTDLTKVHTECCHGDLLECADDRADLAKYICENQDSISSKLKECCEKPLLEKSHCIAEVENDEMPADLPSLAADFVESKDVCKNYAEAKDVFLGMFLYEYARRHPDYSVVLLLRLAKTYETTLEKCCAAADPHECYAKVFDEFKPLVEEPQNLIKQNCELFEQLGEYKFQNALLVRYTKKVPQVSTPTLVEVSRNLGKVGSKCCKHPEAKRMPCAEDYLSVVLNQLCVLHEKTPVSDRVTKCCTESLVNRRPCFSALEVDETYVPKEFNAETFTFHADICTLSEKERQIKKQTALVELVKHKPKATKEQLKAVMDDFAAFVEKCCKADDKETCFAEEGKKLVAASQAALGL

SMILES | number of primary binding sites on human serum albumin (Scatchard plot without competing ligand (FIG. 1)) | reduction of the affinity (Ka) of L-TRP for albumin [%] | displacement of albumin-bound tryptophan (2:1 ligand-to-albumin ratio) | effect on specific (primary site) L-TRP binding capacity of albumin (4.0 moles of ligand per mole albumin) | inhibitory effect on L-TRP binding capacity of albumin (higher molar ratios (2.0 to 4.0) of ligand) | effect on L-TRP binding to albumin | effect on L-TRP binding capacity of albumin
N[C@@H](Cc1c[nH]c2ccccc12)C(=O)O [L-TRP, L-tryptophan] | one | – | – | – | – | – | –
CCCCCCCCCCCCCCCCCC(=O)O [stearate, reference compound] | – | 20 | – | – | – | – | –
CC\C=C/C=C/C=C/C=C\CCCCCCCC(=O)O [cis-parinaric acid, cis, trans, trans, cis-9,11,13,15-octadecatetraenoic acid] | – | 80 | up to 90% | completely blocked; also recorded: completely abolished | most effective | strong inhibitory effect | abolished
C=CC1=C(C)/C(=C/c2[nH]c(Cc3[nH]c(/C=C4\NC(=O)C(C)=C4C=C)c(C)c3CCC(=O)O)c(CCC(=O)O)c2C)NC1=O [bilirubin, reference compound] | – | – | – | – | – | did not affect; also recorded: little effect | progressive inhibition
